“And” between values parts separate entries of the source, which are not always exact repeats. Identical values can stand only once. Like-named read-outs stand apart in the source and are kept apart here.
Key:
TYK2 = TYK2 (Homo sapiens, UniProt P29597); test: SelectScreen kinase assay
Procedure: (§3) Selectivity profiling assays were performed by the Invitrogen SelectScreen™ Services. […] The concentration of ATP was selected to be equal to the KM, unless indicated otherwise.

PAK3 = PAK3 (Homo sapiens, UniProt O75914); test: SelectScreen kinase assay
Procedure: as §3

ADRBK2 (GRK3) = molecular target: T1, ADRBK2 (GRK3) (Homo sapiens, UniProt P35626); test: SelectScreen kinase assay
T1 sequence (P35626 1-688): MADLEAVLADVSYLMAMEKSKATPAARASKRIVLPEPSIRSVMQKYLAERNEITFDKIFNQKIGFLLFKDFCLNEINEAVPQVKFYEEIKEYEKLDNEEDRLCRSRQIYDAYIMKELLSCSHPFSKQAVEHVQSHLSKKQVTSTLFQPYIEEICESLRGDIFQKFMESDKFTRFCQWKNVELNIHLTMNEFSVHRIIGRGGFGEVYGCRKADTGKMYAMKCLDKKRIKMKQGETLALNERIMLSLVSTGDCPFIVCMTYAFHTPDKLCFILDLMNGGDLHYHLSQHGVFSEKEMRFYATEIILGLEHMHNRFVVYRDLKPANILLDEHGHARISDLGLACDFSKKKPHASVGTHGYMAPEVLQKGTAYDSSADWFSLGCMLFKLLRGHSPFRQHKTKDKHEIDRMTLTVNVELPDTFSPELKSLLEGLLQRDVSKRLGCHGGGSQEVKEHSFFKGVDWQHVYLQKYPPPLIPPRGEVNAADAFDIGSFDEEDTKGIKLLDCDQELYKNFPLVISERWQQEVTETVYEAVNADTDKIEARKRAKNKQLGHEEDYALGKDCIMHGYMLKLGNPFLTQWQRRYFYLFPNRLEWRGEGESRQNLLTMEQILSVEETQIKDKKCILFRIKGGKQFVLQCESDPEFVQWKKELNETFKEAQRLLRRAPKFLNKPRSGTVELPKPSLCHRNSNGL
Procedure: as §3

PRKCZ (PKC zeta) = molecular target: T2, PRKCZ (PKC zeta) (Homo sapiens, UniProt Q05513); test: SelectScreen kinase assay; details: for Inhibition at 1 µM (%): PRKCZ (PKC zeta), ZLYTE, ATP Km app
T2 sequence (Q05513 1-592): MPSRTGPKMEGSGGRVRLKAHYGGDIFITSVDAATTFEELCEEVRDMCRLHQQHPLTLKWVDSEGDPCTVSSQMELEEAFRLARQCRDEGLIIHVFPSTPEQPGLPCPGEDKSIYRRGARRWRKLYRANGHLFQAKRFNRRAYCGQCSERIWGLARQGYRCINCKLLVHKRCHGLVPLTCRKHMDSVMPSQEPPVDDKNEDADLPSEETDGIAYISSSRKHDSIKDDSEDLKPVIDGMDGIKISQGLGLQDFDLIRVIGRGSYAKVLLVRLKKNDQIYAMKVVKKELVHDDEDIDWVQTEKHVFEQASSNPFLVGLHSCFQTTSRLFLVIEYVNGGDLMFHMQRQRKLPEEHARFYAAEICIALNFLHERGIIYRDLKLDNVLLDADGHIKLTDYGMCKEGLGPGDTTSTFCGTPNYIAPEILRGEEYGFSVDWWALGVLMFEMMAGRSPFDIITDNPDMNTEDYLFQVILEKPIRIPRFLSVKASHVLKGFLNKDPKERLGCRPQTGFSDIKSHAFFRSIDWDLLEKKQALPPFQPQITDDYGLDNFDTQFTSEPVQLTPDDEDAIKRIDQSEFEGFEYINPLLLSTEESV
Procedure: as §3

PLK2 = PLK2 (Homo sapiens, UniProt Q9NYY3); test: SelectScreen kinase assay
Procedure: as §3

MAPK8 (JNK1) = MAPK8 (JNK1) (Homo sapiens, UniProt P45983); test: SelectScreen kinase assay
Procedure: as §3

WEE1 = WEE1 (Homo sapiens, UniProt P30291); test: SelectScreen kinase assay
Procedure: as §3

CDK8/cyclin C = CDK8/cyclin C (Homo sapiens, UniProt P49336); test: SelectScreen kinase assay; details: read-out: Inhibition at 1 µM (%)
Procedure: as §3

[1] = test system: FES^S700C HL-60 neutrophils; test: Phagocytosis assay with GFP-expressing E. coli; type: cell-based, human; details: for Phagocytic index / GFP-positive cells (%) / Mean GFP intensity (RFU): listed as WEL028; for GFP-positive cells (%): Sup. Fig. 15a; for Mean GFP intensity (RFU): Sup. Fig. 15b
Procedure: (§1) HL-60 cells were differentiated to neutrophils as described above. Cells were counted and centrifuged (200g, 5 min), followed by resuspension in growth medium without antibiotics. Cells were incubated with vehicle or inhibitor (from 1000x concentrated stocks in DMSO) for 1 h at 37 °C prior to infection (1×10^6 cells in 900 µL in 12-well plate). Meanwhile, E. coli B834(DE3) constitutively expressing GFP^A206K were grown in LB medium to an OD600 of 0.4–1.0, after which bacteria were centrifuged (2000g, 5 min), washed and resuspended in PBS to appropriate density. Neutrophils were infected by addition of bacteria at multiplicity of infection (MOI) of 30 unless stated otherwise. Cells were then incubated for 1 h at 37 °C unless stated otherwise, after which cells were resuspended and transferred to Eppendorf tubes, washed in FACS buffer (1 mL, 500g, 3 min) and fixed in 1% PFA in PBS (15 min, 4 °C, in the dark). Samples were further processed as described above.
(§2) Events (generally 20,000 per condition) were gated by forward and side scatter (cells), side scatter area (singlets) and the percentage of GFP-positive cells and GFP mean fluorescence intensity (MFI) were determined based on background fluorescence for non-infected cells. The GREEN-B channel (525/30 filter) was used to detect GFP.

WT HL-60 neutrophils = test: Phagocytosis assay with GFP-expressing E. coli; type: cell-based, human; details: Figure 7e, replicates, listed as WEL028
Procedure: as §1, §2

[2] = 1 h, 1 μM WEL028, 1 h preincubation

PAK3, sequence (O75914 whole entry): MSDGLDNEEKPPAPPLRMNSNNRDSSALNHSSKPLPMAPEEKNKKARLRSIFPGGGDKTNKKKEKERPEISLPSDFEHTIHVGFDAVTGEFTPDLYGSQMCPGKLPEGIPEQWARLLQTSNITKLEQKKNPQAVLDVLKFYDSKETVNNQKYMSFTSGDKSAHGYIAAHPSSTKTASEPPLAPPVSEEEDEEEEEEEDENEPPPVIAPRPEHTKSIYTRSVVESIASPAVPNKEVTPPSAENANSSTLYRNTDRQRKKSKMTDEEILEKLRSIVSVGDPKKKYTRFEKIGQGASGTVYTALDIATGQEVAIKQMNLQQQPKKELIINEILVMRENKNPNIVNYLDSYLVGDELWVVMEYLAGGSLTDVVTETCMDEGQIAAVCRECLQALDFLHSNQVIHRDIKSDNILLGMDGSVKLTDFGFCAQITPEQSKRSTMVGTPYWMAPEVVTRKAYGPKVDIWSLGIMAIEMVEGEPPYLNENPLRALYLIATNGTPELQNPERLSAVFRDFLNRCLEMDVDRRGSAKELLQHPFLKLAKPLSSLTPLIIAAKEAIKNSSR
PLK2, sequence (Q9NYY3 whole entry): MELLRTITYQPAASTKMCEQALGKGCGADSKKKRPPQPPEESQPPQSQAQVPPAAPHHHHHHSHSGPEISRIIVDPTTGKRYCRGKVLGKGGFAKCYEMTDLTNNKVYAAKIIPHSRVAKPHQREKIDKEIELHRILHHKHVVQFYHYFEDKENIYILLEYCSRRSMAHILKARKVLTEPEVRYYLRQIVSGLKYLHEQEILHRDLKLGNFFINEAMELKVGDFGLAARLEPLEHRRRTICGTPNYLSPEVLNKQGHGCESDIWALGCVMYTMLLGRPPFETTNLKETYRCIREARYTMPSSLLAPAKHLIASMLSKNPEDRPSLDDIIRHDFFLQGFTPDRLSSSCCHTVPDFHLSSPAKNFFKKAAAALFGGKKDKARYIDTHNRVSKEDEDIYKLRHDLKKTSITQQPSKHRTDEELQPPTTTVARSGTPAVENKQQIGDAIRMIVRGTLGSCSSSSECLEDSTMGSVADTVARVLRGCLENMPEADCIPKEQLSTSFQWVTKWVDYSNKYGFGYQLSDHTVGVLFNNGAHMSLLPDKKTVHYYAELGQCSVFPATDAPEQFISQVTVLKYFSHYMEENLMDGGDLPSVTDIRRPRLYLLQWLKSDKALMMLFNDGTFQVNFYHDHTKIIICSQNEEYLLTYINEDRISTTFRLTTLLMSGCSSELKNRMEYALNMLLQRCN
TYK2, sequence (P29597 whole entry): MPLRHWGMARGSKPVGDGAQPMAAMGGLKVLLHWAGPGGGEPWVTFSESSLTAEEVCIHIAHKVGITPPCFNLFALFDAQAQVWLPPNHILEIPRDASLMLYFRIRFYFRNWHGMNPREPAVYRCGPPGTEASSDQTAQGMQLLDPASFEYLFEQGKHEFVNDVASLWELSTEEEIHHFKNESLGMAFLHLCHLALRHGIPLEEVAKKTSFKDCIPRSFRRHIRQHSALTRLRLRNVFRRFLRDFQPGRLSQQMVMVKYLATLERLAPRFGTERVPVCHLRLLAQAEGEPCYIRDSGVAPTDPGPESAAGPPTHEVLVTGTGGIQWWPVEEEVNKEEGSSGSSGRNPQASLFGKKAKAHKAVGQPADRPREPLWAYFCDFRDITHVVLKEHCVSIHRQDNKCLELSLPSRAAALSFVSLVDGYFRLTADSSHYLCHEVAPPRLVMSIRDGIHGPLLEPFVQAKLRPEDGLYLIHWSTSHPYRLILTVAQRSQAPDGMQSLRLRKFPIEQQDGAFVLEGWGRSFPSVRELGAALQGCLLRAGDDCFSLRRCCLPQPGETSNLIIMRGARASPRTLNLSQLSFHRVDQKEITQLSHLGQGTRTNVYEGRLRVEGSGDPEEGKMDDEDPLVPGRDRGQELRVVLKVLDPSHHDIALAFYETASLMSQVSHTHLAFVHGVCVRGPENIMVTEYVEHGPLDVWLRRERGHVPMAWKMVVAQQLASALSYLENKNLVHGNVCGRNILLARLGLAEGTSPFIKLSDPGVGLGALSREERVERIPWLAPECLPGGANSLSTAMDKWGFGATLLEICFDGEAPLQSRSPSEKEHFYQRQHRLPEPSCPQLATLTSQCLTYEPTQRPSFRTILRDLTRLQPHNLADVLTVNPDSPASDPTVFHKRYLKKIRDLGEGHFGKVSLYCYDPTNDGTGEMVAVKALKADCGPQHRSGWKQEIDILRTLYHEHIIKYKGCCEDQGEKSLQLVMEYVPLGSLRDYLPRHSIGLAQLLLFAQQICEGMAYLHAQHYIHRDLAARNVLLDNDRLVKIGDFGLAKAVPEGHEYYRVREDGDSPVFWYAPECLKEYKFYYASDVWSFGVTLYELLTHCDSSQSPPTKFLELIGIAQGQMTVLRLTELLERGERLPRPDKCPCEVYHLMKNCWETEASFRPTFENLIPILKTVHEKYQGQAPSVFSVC
MAPK8 (JNK1), sequence (P45983 whole entry): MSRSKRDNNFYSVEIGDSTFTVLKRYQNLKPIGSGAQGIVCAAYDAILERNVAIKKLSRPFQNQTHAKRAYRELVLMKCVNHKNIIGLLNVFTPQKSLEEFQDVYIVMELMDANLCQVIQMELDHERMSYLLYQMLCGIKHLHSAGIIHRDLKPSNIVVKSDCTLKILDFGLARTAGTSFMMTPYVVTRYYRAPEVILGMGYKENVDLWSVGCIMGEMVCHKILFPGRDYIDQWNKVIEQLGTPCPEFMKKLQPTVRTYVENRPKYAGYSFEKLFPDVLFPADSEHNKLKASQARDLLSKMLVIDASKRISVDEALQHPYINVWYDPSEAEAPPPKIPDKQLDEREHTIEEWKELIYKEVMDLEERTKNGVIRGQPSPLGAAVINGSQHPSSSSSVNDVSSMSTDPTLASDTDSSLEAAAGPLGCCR
WEE1, sequence (P30291 whole entry): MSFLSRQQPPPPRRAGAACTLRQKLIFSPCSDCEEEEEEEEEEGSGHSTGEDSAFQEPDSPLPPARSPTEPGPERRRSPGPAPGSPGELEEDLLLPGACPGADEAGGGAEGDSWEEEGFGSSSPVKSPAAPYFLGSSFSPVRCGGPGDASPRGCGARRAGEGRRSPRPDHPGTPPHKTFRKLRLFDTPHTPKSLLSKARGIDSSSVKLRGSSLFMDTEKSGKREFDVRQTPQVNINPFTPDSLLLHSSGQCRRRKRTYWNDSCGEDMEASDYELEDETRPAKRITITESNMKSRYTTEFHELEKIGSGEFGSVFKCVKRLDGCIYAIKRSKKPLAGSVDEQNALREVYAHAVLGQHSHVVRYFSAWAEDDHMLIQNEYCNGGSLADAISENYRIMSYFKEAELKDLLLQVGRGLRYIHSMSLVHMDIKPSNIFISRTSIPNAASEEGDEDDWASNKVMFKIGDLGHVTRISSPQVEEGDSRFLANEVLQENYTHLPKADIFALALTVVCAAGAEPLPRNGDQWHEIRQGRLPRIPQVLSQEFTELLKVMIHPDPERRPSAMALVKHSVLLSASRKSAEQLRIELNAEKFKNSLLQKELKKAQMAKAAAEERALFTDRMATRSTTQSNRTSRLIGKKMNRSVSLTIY
CDK8/cyclin C, sequence (P49336 whole entry): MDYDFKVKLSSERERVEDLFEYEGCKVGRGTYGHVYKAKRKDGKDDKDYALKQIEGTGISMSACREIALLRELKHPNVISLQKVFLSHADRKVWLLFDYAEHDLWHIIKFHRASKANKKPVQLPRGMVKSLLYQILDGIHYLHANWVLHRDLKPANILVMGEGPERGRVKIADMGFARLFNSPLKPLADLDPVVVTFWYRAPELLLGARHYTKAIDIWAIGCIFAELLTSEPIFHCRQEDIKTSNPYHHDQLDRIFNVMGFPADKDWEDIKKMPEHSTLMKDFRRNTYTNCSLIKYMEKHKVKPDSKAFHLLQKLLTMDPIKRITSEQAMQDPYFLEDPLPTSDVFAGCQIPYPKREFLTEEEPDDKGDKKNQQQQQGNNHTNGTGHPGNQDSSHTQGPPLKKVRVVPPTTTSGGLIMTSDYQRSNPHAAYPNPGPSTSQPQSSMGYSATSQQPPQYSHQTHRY
CDK8/cyclin C, sequence (P24863 whole entry partner): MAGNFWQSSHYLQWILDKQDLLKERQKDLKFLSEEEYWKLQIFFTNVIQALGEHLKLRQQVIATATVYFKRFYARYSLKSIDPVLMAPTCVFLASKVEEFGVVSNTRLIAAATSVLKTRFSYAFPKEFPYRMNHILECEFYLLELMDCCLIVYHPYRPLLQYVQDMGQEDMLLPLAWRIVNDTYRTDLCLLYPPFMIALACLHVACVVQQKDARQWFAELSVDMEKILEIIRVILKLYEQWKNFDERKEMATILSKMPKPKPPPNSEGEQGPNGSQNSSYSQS

C#CCOc1ccc(Nc2ncc(Cl)c(Nc3ccccc3NC(=O)C=C)n2)c(OC)c1 [Compound 6]
Inhibition (%) (TYK2; 1 μM WEL028, 1 h preincubation): -1% | Inhibition at 1 µM (%) (TYK2; 1 µM, ZLYTE, ATP Km app, listed as WEL028, 1 µM): -6% and 4% | inhibition at 1 µM (PAK3; [2]): 7% | Inhibition at 1 µM (%) (PAK3; PAK3, 1 µM, ZLYTE, ATP Km app, listed as WEL028, 1 µM): 6% | inhibition at 1 µM (PAK3; read-out: Inhibition at 1 µM (%), PAK3, 1 µM, ZLYTE, ATP Km app): 7% | inhibition at 1 µM (ADRBK2 (GRK3); [2]): 7% | Inhibition at 1 µM (%) (ADRBK2 (GRK3); ADRBK2 (GRK3), 1 µM, ZLYTE, ATP Km app, listed as WEL028, 1 µM): 8% | inhibition at 1 µM (ADRBK2 (GRK3); read-out: Inhibition at 1 µM (%), ADRBK2 (GRK3), 1 µM, ZLYTE, ATP Km app): 5% | inhibition at 1 µM (PRKCZ (PKC zeta); [2]): -1% | Inhibition at 1 µM (%) (PRKCZ (PKC zeta)): 3% | Inhibition at 1 µM (%) (PRKCZ (PKC zeta); listed as WEL028, 1 µM): -5% | Inhibition (%) (PLK2; 1 μM WEL028, 1 h preincubation): 12% | Inhibition at 1 µM (%) (PLK2; PLK2, 1 µM, ZLYTE, ATP Km app, listed as WEL028, 1 µM): 15% | inhibition at 1 µM (PLK2; read-out: Inhibition at 1 µM (%), PLK2, 1 µM, ZLYTE, ATP Km app): 8% | Inhibition (%) (MAPK8 (JNK1); 1 μM WEL028, 1 h preincubation): 16% | Inhibition at 1 µM (%) (MAPK8 (JNK1); MAPK8 (JNK1), 1 µM, ZLYTE, ATP 100, listed as WEL028, 1 µM): 22% | inhibition at 1 µM (MAPK8 (JNK1); read-out: Inhibition at 1 µM (%), MAPK8 (JNK1), 1 µM, ZLYTE, ATP 100): 11% | Inhibition at 1 µM (%) (WEE1; 1 µM, LanthaScreen Binding): -14% | inhibition at 1 µM (WEE1; [2]): -5% | inhibition at 1 µM (CDK8/cyclin C): 0% | Reduction of phagocytic index ([1]; 100 nM, 1 h, E. coli MOI 30, 1 h): 30–50% | Phagocytic index ([1]; Figure 7e, S700C, replicates): 145.478 and 171.315 and 187.921 and 222.417 and 183.286 | Phagocytic index ([1]; Figure 7i, replicates): 197.442 and 178.118 and 223.309 and 208.369 and 195.015 | Phagocytic index ([1]; MOI 0, Sup. Fig. 15d): 11.3713 and 7.7474 and 12.7423 | Phagocytic index ([1]; MOI 5, Sup. Fig. 15d): 256.754 and 179.658 and 258.748 | Phagocytic index ([1]; MOI 10, Sup. Fig. 15d): 353.426 and 268.67 and 311.603 | Phagocytic index ([1]; MOI 30, Sup. Fig. 15d): 419.958 and 366.26 and 418.025 | Phagocytic index ([1]; MOI 50, Sup. Fig. 15d): 485.281 and 414.473 and 534.485 | GFP-positive cells (%) ([1]; infection time 0 min): 18.616% and 19.116% and 23.8538% | Mean GFP intensity (RFU) ([1]; infection time 0 min): 251.299 RFU and 272.27 RFU and 265.594 RFU | Phagocytic index ([1]; infection time 0 min, Sup. Fig. 15c): 46.7819 and 52.047 and 63.3542 | GFP-positive cells (%) ([1]; infection time 15 min): 35.6181% and 40.0295% and 44.0403% | Mean GFP intensity (RFU) ([1]; infection time 15 min): 355.136 RFU and 341.544 RFU and 336.989 RFU | Phagocytic index ([1]; infection time 15 min, Sup. Fig. 15c): 126.493 and 136.719 and 148.411 | GFP-positive cells (%) ([1]; infection time 30 min): 53.551% and 63.4482% and 62.11% | Mean GFP intensity (RFU) ([1]; infection time 30 min): 496.403 RFU and 400.363 RFU and 431.37 RFU | Phagocytic index ([1]; infection time 30 min, Sup. Fig. 15c): 265.829 and 254.023 and 267.924 | GFP-positive cells (%) ([1]; infection time 60 min): 64.7116% and 74.5174% and 69.3761% | Mean GFP intensity (RFU) ([1]; infection time 60 min): 571.855 RFU and 482.086 RFU and 578.862 RFU | Phagocytic index ([1]; infection time 60 min, Sup. Fig. 15c): 370.057 and 359.238 and 401.592 | Phagocytic index (WT HL-60 neutrophils): 160.957 and 207.068 and 250.511 and 251.311 and 284.865

From paper PMC7316778 (Nature Communications, 2020)
